In patent US20260250289A1, “BICYCLIC HETEROCYCLES AND THEIR USE AS WRN INHIBITORS” (Novartis AG, priority 2022, published 2026):

Key:
[1] = target: T1, WRN helicase (aa N517-P1238) (Homo sapiens, UniProt Q14191); experiment: WRN ATPase assay (DNA dependent ATP hydrolysis, ADP-Glo); type: biochemical; conditions: 3 hours pre-incubation, 300 micromolar ATP, FLAP26 DNA; geometric mean of at least 2
T1 construct: The core helicase motif of the WRN protein (aa N517-P1238) was produced for this assay; His (N); ZZ (N); 3C protease cleavage site (N); made in house; host or cells: Sf21 insect cells (baculovirus; virus and BIICs made in SF9)
T1 sequence (Q14191 517-1238): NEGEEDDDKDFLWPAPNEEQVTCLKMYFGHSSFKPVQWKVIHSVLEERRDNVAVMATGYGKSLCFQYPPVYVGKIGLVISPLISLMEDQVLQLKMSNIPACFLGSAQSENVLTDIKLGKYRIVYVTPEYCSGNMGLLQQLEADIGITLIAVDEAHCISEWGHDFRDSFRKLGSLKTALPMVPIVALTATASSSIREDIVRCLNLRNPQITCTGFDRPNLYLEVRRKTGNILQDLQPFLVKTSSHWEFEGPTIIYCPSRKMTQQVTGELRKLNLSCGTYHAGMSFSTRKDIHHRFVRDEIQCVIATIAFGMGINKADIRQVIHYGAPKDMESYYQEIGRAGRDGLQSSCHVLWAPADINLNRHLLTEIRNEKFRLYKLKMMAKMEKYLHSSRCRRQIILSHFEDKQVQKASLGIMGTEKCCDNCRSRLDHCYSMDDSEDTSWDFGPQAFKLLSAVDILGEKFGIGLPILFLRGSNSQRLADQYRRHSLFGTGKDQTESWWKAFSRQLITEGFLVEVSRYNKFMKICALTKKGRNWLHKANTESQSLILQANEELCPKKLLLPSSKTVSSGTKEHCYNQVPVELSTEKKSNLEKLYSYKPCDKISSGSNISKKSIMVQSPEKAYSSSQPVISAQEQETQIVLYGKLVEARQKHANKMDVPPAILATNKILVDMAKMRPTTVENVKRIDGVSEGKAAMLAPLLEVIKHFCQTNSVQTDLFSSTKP
Outline: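 DNA-dependent ATP hydrolysis detected as ADP by ADP-Glo luminescence, using 300 μM ATP, 0.2 nM FLAP26 substrate and 10 nM WRN aa N517-P1238 (Tris pH 7.5 buffer, 2 mM MgCl2, 50 mM NaCl). IC50s fitted from normalized duplicate half-log dilutions; reported as geometric means of at least 2 replicates.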

SW48 cells = experiment: Proliferation assay SW48 (CellTiterGlo); type: cell-based; conditions: Homo sapiens, SW48, 96 h, SW48 colon carcinoma cells, 96 hours, CellTiterGlo; geometric mean of at least 2; read-out: Proliferation Assay SW48 GI50
Outline: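 Read-out is CellTiterGlo luminescence after 96 hours of compound exposure, with % growth calculated against day-0 and vehicle-treated ATP levels. SW48 seeded at 2,000 cells/well, dosed next day with eight 3-fold serial dilutions, 0.1% DMSO. GI50 reported as geometric mean, at least 2 replicates.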

DLD1-WRN-KO cells = experiment: Proliferation assay DLD1-WRN-KO (CellTiterGlo, off-target effects); type: cell-based; conditions: 96 hours, geometric mean of at least 2
Outline: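 DLD1 cells with CRISPR knockout of WRN were exposed overnight-seeded to eight 3-fold compound dilutions (0.1% DMSO) for 96 h at 37 °C. Viability was read as ATP by CellTiterGlo luminescence against a day-0 plate, giving GI50 and residual viability at top concentration.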

IC50 [1] | GI50 (SW48 cells) | GI50 (DLD1-WRN-KO cells) | Structure (SMILES)
4000 nM | 4000 nM | > 10000 nM | CC(=O)N1CCN(c2c(C)n(CC(=O)Nc3cc(F)c(C(F)(F)F)c(F)c3)c3nc(C4=CCOCC4)nn3c2=O)CC1 [Example 103, 2-(6-(4-acetylpiperazin-1-yl)-2-(3,6-dihydro-2H-pyran-4-yl)-5-methyl-7-oxo-[1,2,4]triazolo[1,5-a]pyrimidin-4(7H)-yl)-N-(3,5-difluoro-4-(trifluoromethyl)phenyl)acetamide]
800 nM | 8000 nM | > 10000 nM | CC(=O)N1CCN(c2c(C)n(CC(=O)Nc3ccc(C(F)(F)F)cc3)c3nc(C4=COCCO4)nn3c2=O)CC1 [Example 104, 2-(6-(4-acetylpiperazin-1-yl)-2-(5,6-dihydro-1,4-dioxin-2-yl)-5-methyl-7-oxo-[1,2,4]triazolo[1,5-a]pyrimidin-4(7H)-yl)-N-(4-(trifluoromethyl)phenyl)acetamide]
100 nM | 800 nM | 5000 nM | CC(=O)N1CCN(c2c(C)n(CC(=O)Nc3ccc(C(F)(F)F)cc3)c3nc(C4=CCN(C(=O)OC(C)(C)C)CC4)nn3c2=O)CC1 [Example 105, tert-butyl 4-(6-(4-acetylpiperazin-1-yl)-5-methyl-7-oxo-4-(2-oxo-2-((4-(trifluoromethyl)phenyl)amino)ethyl)-4,7-dihydro-[1,2,4]triazolo[1,5-a]pyrimidin-2-yl)-3,6-dihydropyridine-1(2H)-carboxylate]
100 nM | 200 nM | > 10000 nM | CC(=O)N1CCN(c2c(C)n(CC(=O)Nc3ccc(C(F)(F)F)cc3)c3nc(-c4cccnc4)nn3c2=O)CC1 [Example 106, 2-(6-(4-acetylpiperazin-1-yl)-5-methyl-7-oxo-2-(pyridin-3-yl)-[1,2,4]triazolo[1,5-a]pyrimidin-4(7H)-yl)-N-(4-(trifluoromethyl)phenyl)acetamide]
200 nM | 3000 nM | > 10000 nM | COC1CC=C(c2nc3n(CC(=O)Nc4ccc(C(F)(F)F)cc4)c(C)c(N4CCN(C(C)=O)CC4)c(=O)n3n2)CC1 (stereo not drawn) [Example 107, 2-(6-(4-acetylpiperazin-1-yl)-2-(4-methoxycyclohex-1-en-1-yl)-5-methyl-7-oxo-[1,2,4]triazolo[1,5-a]pyrimidin-4(7H)-yl)-N-(4-(trifluoromethyl)phenyl)acetamide]
200 nM | 900 nM | > 10000 nM | CC(=O)N1CCN(c2c(C)n(CC(=O)Nc3cc(Cl)c(C(F)(F)F)cc3C)c3nc(C4=CCOCC4)nn3c2=O)CC1 [Example 108, 2-(6-(4-acetylpiperazin-1-yl)-2-(3,6-dihydro-2H-pyran-4-yl)-5-methyl-7-oxo-[1,2,4]triazolo[1,5-a]pyrimidin-4(7H)-yl)-N-(5-chloro-2-methyl-4-(trifluoromethyl)phenyl)acetamide]
200 nM | 4000 nM | > 10000 nM | CC(=O)N1CCN(c2c(C)n(CC(=O)Nc3ccc(C(F)(F)F)cc3)c3nc(C4=CCCCO4)nn3c2=O)CC1 [Example 109, 2-(6-(4-acetylpiperazin-1-yl)-2-(3,4-dihydro-2H-pyran-6-yl)-5-methyl-7-oxo-[1,2,4]triazolo[1,5-a]pyrimidin-4(7H)-yl)-N-(4-(trifluoromethyl)phenyl)acetamide]
200 nM | 5000 nM | > 10000 nM | CC(=O)N1CCN(c2c(C)n(CC(=O)Nc3ccc(C(F)(F)F)cc3)c3nc(C4=CCCC4)nn3c2=O)CC1 [Example 110, 2-(6-(4-acetylpiperazin-1-yl)-2-(cyclopent-1-en-1-yl)-5-methyl-7-oxo-[1,2,4]triazolo[1,5-a]pyrimidin-4(7H)-yl)-N-(4-(trifluoromethyl)phenyl)acetamide]
300 nM | 5000 nM | > 10000 nM | CC(=O)N1CCN(c2c(C)n(CC(=O)Nc3ccc(C(F)(F)F)cc3)c3nc(N4CCC(N(C)CC(F)F)CC4)nn3c2=O)CC1 [Example 113, 2-(6-(4-acetylpiperazin-1-yl)-2-(4-((2,2-difluoroethyl)(methyl)amino)piperidin-1-yl)-5-methyl-7-oxo-[1,2,4]triazolo[1,5-a]pyrimidin-4(7H)-yl)-N-(4-(trifluoromethyl)phenyl)acetamide]
400 nM | 2000 nM | > 10000 nM | CC(=O)N1CCN(c2c(C)n(CC(=O)Nc3ccc(C(F)(F)F)cc3)c3nc(C4=CCC(N5CC(F)(F)C5)CC4)nn3c2=O)CC1 (stereo not drawn) [Example 114, 2-(6-(4-acetylpiperazin-1-yl)-2-(4-(3,3-difluoroazetidin-1-yl)cyclohex-1-en-1-yl)-5-methyl-7-oxo-[1,2,4]triazolo[1,5-a]pyrimidin-4(7H)-yl)-N-(4-(trifluoromethyl)phenyl) acetamide]
500 nM | 2000 nM | 5000 nM | CC(=O)N1CCN(c2c(C)n(CC(=O)Nc3ccc(C(F)(F)F)cc3)c3nc(-c4ccccn4)nn3c2=O)CC1 [Example 115, 2-(6-(4-acetylpiperazin-1-yl)-5-methyl-7-oxo-2-(pyridin-2-yl)-[1,2,4]triazolo[1,5-a]pyrimidin-4(7H)-yl)-N-(4-(trifluoromethyl)phenyl)acetamide]
600 nM | 9000 nM | > 10000 nM | CC(=O)N1CCN(c2c(C)n(CC(=O)Nc3ccc(C(F)(F)F)cc3)c3nc(C4=CCC(F)(F)CC4)nn3c2=O)CC1 [Example 118, 2-(6-(4-acetylpiperazin-1-yl)-2-(4,4-difluorocyclohex-1-en-1-yl)-5-methyl-7-oxo-[1,2,4]triazolo[1,5-a]pyrimidin-4(7H)-yl)-N-(4-(trifluoromethyl)phenyl)acetamide]
600 nM | 6000 nM | > 10000 nM | CC(=O)N1CCN(c2c(C)n(CC(=O)Nc3ccc(C(F)(F)F)cc3)c3nc(C4=CCN(CC(F)F)CC4)nn3c2=O)CC1 [Example 119, 2-(6-(4-acetylpiperazin-1-yl)-2-(1-(2,2-difluoroethyl)-1,2,3,6-tetrahydropyridin-4-yl)-5-methyl-7-oxo-[1,2,4]triazolo[1,5-a]pyrimidin-4(7H)-yl)-N-(4-(trifluoromethyl)phenyl)acetamide]
600 nM | 6000 nM | > 10000 nM | COCC1=CCN(c2nc3n(CC(=O)Nc4ccc(C(F)(F)F)cc4)c(C)c(N4CCN(C(C)=O)CC4)c(=O)n3n2)CC1 [Example 120, 2-(6-(4-acetylpiperazin-1-yl)-2-(4-(methoxymethyl)-3,6-dihydropyridin-1(2H)-yl)-5-methyl-7-oxo-[1,2,4]triazolo[1,5-a]pyrimidin-4(7H)-yl)-N-(4-(trifluoromethyl)phenyl)acetamide]
700 nM | 5000 nM | > 10000 nM | CC(=O)N1CCN(c2c(C)n(CC(=O)Nc3ccc(C(F)(F)F)cc3)c3nc(N4CC=CCC4)nn3c2=O)CC1 [Example 121, 2-(6-(4-acetylpiperazin-1-yl)-2-(3,6-dihydropyridin-1(2H)-yl)-5-methyl-7-oxo-[1,2,4]triazolo[1,5-a]pyrimidin-4(7H)-yl)-N-(4-(trifluoromethyl)phenyl)acetamide]
700 nM | 5000 nM | > 10000 nM | CC(=O)N1CCN(c2c(C)n(CC(=O)Nc3ccc(C(F)(F)F)cc3)c3nc(N4CCC5(CCCO5)CC4)nn3c2=O)CC1 [Example 122, 2-(6-(4-acetylpiperazin-1-yl)-5-methyl-7-oxo-2-(1-oxa-8-azaspiro[4.5]decan-8-yl)-[1,2,4]triazolo[1,5-a]pyrimidin-4(7H)-yl)-N-(4-(trifluoromethyl)phenyl)acetamide]
700 nM | 9000 nM | > 10000 nM | COC1CCN(c2nc3n(CC(=O)Nc4ccc(C(F)(F)F)cc4)c(C)c(N4CCN(C(C)=O)CC4)c(=O)n3n2)CC1 [Example 123, 2-(6-(4-acetylpiperazin-1-yl)-2-(4-methoxypiperidin-1-yl)-5-methyl-7-oxo-[1,2,4]triazolo[1,5-a]pyrimidin-4(7H)-yl)-N-(4-(trifluoromethyl)phenyl)acetamide]
700 nM | 4000 nM | > 10000 nM | CC(=O)N1CCN(c2c(C)n(CC(=O)Nc3ccc(C(F)(F)F)cc3)c3nc(-c4ccc(F)cc4)nn3c2=O)CC1 [Example 124, 2-(6-(4-acetylpiperazin-1-yl)-2-(4-fluorophenyl)-5-methyl-7-oxo-[1,2,4]triazolo[1,5-a]pyrimidin-4(7H)-yl)-N-(4-(trifluoromethyl)phenyl) acetamide]
800 nM | 3000 nM | > 10000 nM | CC(=O)N1CCN(c2c(C)n(CC(=O)Nc3ccc(C(F)(F)F)cc3)c3nc(N4CC5CC5C4)nn3c2=O)CC1 (stereo not drawn) [Example 125, 2-(6-(4-acetylpiperazin-1-yl)-2-(3-azabicyclo[3.1.0]hexan-3-yl)-5-methyl-7-oxo-[1,2,4]triazolo[1,5-a]pyrimidin-4(7H)-yl)-N-(4-(trifluoromethyl)phenyl)acetamide]
